1 compound from article PMC6916368, “Cell‐Based Optimization of Covalent Reversible Ketoamide Inhibitors Bridging the Unprimed to the Primed Site of the Proteasome β5 Subunit” (Chemmedchem, 2019) can be followed below.

Broadly, the inhibition is the drop in the measured response relative to a control, in per cent.

Series [1] deals with T1, β2c subunit of isolated human 20S proteasome (Homo sapiens, UniProt Q99436).
T1 construct: purchased Enzo Life Sciences
Put plainly: Proteasome inhibition assay (20 S Proteasome Assay Kit, Bz‐VGR‐AMC). Type of series: biochemical. The settings on record: c = 1 µM, n=1; read-out: Inhibition cCP β2. A digest of the protocol:
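Isolated 20S proteasome (200 ng/well) was preincubated 30 min with inhibitor, then Bz-VGR-AMC (100 μM final) was added for 60 min and fluorescence read. Single-point residual activity was taken at 100 nM or 1 μM; IC50 was fitted from duplicates, mean of three independent experiments.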

For series [2], the system named is Danio rerio embryos. The series is described as follows: Danio rerio embryo toxicity assay (not dechorionated). Type of series: in vivo. How it is done:
Danio rerio embryo toxicity assay. Fish keeping protocols are approved by the Darmstadt administrative authority and documented. All fish were treated humanely. […] Embryos were decollated into separate wells containing a total volume of 200 μL and the inhibitor at the given concentration.

`Cc1cc(C)c(Oc2ccccc2)cc1NC(=O)C(=O)[C@H](CC(C)C)NC(=O)[C@H](CC(C)C)NC(=O)[C@H](CC(C)C)NC(=O)c1cc(Cl)ccc1Cl` [Compound 27, 2,5‐Dichloro‐N‐((S)‐1‐(((S)‐1‐(((S)‐1‐((2,4‐dimethyl‐5‐phenoxyphenyl)amino)‐5‐methyl‐1,2‐dioxo‐hexan‐3‐yl)amino)‐4‐methyl‐1‐oxopentan‐2‐yl)amino)‐4‐methyl‐1‐oxopentan‐2‐yl)benzamide]: the inhibition at 1 µM in series [1] was determined as 6%. In addition, the “Survival of embryos (not dechorionated)” value is 100% in series [2] (1 µM, 24 h); 100% in series [2] (1 µM, 48 h); 100% in series [2] (1 µM, 72 h); 100% in series [2] (1 µM, 96 h); 100% in series [2] (5 µM, 24 h); 100% in series [2] (5 µM, 48 h). Further, the “Survival of embryos (not dechorionated)” value in series [2] (5 µM, 72 h) turned out to be 100%; in series [2] (5 µM, 96 h), 100%; in series [2] (10 µM, 24 h), 100%; in series [2] (10 µM, 48 h) it was 100%; in series [2] (10 µM, 72 h), 100%; in series [2] (10 µM, 96 h) it was 100%. The “Survival of embryos (not dechorionated)” value in series [2] (25 µM, 24 h) was determined as 100%; in series [2] (25 µM, 48 h) it was 100%; in series [2] (25 µM, 72 h), 100%; in series [2] (25 µM, 96 h), 100%.
